Experimental data reported in patent publication US20120329826A1, “SUBSTITUTED-5-AMINOPYRROLO/PYRAZOLOPYRIDINES” (OSI Pharmaceuticals,. LLC, priority 2010, published 2012).
Structures can show the parent of a compound that is named as a salt.

Experiments:
RON (human) = RON (human) (Homo sapiens, UniProt Q04912); test: RON (human)-Km of ATP AlphaScreen kinase assay; conditions: biochemical, ATP at Km
Method: RON (human)-Km of ATP: RON assay is performed in a 384 well assay containing 200 ng/μL biotinylated poly(Glu, Tyr), 0.334 mM vanadate, desired concentration of ATP optimized for the enzyme in assay buffer (50 mM HEPES (pH=7.4), 12.5 mM MgCl2 and 1% glycerol). Desired compound is added in a final concentration of 1% DMSO with control being vehicle of DMSO alone. RON is diluted to the optimized (on a lot-by-lot basis) concentration in an enzyme diluent buffer (50 mM HEPES pH=7.4, 12.5 mM MgCl2 and 1% glycerol, 0.03% Brij35, 0.3 mM EGTA, 1 mM DTT, and 0.003% BSA). Enzyme is added to initiate the reaction and incubated for 30 min at RT. In subdued light, appropriate amount of PT66 donor and acceptor beads (diluted 1:260 from manufacturer's provision in a 25 mM Tris HCl (pH=7.5), 200 mM NaCl, 100 mM EDTA, 0.3% BSA buffer) are added to the wells. The plates, incubated for 1 h, are read on an AlphaQuest plate reader.

MET (human) = MET (human) (Homo sapiens, UniProt P08581); test: MET (human)-Km of ATP AlphaScreen kinase assay; conditions: biochemical, ATP at Km
Method: MET (human)-Km of ATP: MET assay is performed in a 384 well assay containing 200 ng/μL biotinylated poly(Glu, Tyr), 0.334 mM vanadate, desired concentration of ATP optimized for the enzyme in assay buffer (50 mM HEPES (pH=7.4), 5 mM MgCl2, 5 mM MnCl2, and 1% glycerol). Desired compound is added in a final concentration of 1% DMSO with control being vehicle of DMSO alone. MET is diluted to the optimized concentration (optimized on a lot-by-lot basis) in an enzyme diluent buffer (50 mM Tris pH=7.4, 1% glycerol, 0.03% Brij35, 0.24 mM EGTA, 1 mM DTT, and 0.003% BSA). Enzyme is added to initiate the reaction and incubated for 60 min at RT. In subdued light, appropriate amount of PT66 donor and acceptor beads (diluted 1:260 from manufacturer's provision in a 25 mM Tris HCl (pH=7.5), 400 mM NaCl, 100 mM EDTA, 0.3% BSA buffer) are added to the wells. The plates, incubated for 1 h, are read on an AlphaQuest plate reader

Sequence of MET (human) (P08581 25-1390): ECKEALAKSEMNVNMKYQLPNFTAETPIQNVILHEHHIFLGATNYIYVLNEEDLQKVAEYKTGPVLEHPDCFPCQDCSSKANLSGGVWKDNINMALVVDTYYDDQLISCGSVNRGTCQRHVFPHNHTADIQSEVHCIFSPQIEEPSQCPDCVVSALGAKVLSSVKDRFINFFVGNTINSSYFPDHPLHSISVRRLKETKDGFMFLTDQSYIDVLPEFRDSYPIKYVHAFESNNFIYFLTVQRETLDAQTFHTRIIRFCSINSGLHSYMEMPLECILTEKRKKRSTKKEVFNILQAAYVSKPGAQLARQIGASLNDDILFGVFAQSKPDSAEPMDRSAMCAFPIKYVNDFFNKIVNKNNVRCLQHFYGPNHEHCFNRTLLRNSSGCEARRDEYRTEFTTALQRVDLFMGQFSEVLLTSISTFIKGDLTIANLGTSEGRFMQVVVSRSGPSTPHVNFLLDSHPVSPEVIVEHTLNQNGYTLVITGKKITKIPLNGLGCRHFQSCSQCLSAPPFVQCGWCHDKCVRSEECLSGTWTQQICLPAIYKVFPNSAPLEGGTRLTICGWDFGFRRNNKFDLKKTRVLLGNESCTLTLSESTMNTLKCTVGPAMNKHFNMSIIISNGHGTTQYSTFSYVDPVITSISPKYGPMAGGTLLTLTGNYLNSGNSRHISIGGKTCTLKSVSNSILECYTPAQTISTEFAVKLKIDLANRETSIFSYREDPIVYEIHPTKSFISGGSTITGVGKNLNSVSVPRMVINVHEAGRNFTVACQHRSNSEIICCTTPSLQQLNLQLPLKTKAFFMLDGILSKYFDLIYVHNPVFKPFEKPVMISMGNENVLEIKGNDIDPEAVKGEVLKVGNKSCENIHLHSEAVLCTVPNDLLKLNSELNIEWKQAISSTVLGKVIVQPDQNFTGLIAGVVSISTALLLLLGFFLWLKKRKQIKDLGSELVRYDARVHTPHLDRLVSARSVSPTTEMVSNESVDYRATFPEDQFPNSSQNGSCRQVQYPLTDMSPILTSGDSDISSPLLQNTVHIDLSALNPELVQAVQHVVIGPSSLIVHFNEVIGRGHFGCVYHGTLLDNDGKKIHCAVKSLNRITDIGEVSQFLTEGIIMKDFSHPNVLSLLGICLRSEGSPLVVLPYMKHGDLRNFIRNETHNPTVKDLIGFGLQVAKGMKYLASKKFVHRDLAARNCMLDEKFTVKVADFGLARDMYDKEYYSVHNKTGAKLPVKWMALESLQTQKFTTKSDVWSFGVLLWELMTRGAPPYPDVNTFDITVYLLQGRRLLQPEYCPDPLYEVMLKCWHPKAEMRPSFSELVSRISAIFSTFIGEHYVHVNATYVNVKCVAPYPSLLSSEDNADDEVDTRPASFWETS
Sequence of RON (human) (Q04912 25-1400): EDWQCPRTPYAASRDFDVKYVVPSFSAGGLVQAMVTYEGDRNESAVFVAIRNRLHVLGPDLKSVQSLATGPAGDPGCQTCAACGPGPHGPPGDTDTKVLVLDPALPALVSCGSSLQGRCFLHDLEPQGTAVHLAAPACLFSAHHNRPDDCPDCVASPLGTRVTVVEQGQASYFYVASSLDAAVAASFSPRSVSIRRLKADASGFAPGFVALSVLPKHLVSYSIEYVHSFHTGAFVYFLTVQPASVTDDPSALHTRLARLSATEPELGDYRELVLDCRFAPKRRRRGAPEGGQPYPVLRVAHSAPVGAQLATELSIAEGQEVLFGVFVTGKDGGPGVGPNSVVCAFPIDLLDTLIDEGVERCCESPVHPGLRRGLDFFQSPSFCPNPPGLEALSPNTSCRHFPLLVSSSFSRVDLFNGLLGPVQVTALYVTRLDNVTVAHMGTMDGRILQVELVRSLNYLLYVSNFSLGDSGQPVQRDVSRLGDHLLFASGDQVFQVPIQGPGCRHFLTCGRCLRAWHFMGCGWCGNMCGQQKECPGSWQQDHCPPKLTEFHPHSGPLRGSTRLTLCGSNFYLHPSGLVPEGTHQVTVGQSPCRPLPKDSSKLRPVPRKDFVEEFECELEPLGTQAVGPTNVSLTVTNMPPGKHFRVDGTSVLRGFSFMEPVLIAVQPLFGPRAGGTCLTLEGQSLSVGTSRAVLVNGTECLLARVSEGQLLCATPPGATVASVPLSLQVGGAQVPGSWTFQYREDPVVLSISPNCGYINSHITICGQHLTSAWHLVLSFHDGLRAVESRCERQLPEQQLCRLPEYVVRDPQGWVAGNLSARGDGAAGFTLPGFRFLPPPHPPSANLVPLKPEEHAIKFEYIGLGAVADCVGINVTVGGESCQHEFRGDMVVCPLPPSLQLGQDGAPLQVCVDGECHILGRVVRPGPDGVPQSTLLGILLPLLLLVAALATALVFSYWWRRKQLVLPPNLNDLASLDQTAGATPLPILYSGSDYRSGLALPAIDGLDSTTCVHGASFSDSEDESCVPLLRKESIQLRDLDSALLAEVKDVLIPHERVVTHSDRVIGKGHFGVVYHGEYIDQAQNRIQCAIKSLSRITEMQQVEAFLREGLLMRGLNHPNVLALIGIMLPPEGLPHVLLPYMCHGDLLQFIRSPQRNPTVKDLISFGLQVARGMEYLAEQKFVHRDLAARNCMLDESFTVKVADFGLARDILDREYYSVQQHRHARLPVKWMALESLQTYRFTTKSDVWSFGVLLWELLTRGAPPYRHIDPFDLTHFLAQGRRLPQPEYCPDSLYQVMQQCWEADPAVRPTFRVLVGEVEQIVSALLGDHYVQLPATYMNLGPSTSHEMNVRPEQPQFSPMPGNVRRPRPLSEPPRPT

Compound	IC50 (RON (human))	IC50 (MET (human))
C[C@@H](Oc1c(N)ncc2[nH]ccc12)c1c(Cl)ccc(F)c1Cl [Example 1, 4-[(R)-1-(2,6-Dichloro-3-fluorophenyl)ethoxy]-1H-pyrrolo[2,3-c]pyridin-5-ylamine]	5 to 20 µM	5 to 20 µM
C[C@@H](Oc1c(N)ncc2c1ccn2C)c1c(Cl)ccc(F)c1Cl [Example 2, 4-[(R)-1-(2,6-Dichloro-3-fluorophenyl)ethoxy]-1-methyl-1H-pyrrolo[2,3-c]pyridin-5-ylamine]	> 20 µM	5 to 20 µM
C[C@@H](Oc1c(N)ncc2c1ccn2CCC1CCNCC1)c1c(Cl)ccc(F)c1Cl [Example 5, 4-[(R)-1-(2,6-Dichloro-3-fluorophenyl)ethoxy]-1-(2-piperidin-4-ylethyl)1H-pyrrolo[2,3-c]pyridin-5-ylamine bis-hydrochloride]	≤ 5 µM	≤ 5 µM
C[C@@H](Oc1c(N)ncc2c1ccn2S(=O)(=O)c1ccccc1)c1c(Cl)ccc(F)c1Cl [Example 6, 1-Benzenesulfonyl-4-[(R)-1-(2,6-dichloro-3-fluorophenyl)ethoxy]-1H-pyrrolo[2,3-c]pyridin-5-ylamine]	> 20 µM	5 to 20 µM
Nc1ncc2[nH]ccc2c1-c1cc2ccccc2o1 [Example 7, 4-Benzofuran-2-yl-1H-pyrrolo[2,3-c]pyridin-5-ylamine]	> 20 µM	> 20 µM
Nc1ncc2c(ccn2Cc2ccccc2)c1-c1cc2ccccc2o1 [Example 8, [(4-Benzofuran-2-yl)-1-benzyl-1H-pyrrolo[2,3-c]pyridin-5-yl]amine]	> 20 µM	
Nc1ncc2c(ccn2CCC2CCNCC2)c1-c1cc2ccccc2o1 [Example 10, [(4-Benzofuran-2-yl)-1-(2-piperidin-4-ylethyl)-1H-pyrrolo[2,3-c]pyridin-5-yl]amine bis-hydrochloride]	≤ 5 µM	≤ 5 µM
